Source: US6355671B1, “SULFONATED DERIVATIVES OF CYCLIC PHENOL SULFIDES, PROCESS FOR THE PREPARATION THEREOF, […] […] […] PHENOL SULFIDES, METHODS FOR […] RECOVERY […], AND DRUG COMPOSITIONS CONTAINING THE SULFIDES” (Cosmo Research Institute, priority 1997, dated 2002)

Columns and labels:
[1] = tested on: MOLT-4 (T cell leukemia cell); conditions: MOLT-4 cell density after 3 days of culture, read from FIG. 2
Method: In order to evaluate cytotoxicity of the cyclic phenol sulfide (III) in a human cell line, MOLT-4 (T cell leukemia cell, Riken Gene Bank accession number RCB 0206), was used in the test. The cyclic phenol sulfide (III) was dissolved in a medium (RPMI-1640 containing 10% FCS (fetal calf serum), kanamycin (5,000 U/ml) and streptomycin (5 mg/ml)) to a concentration of 2.5 mM, and the solution was made into 2-fold serial dilutions to prepare cyclic phenol sulfide (III)-containing medium samples having 11 steps of concentration. Each of the cyclic phenol sulfide (III)-containing medium samples was dispensed into wells of a 6-well plate in 2.5 ml, a MOLT-4 culture broth of 2×10^5 cells/ml was dispensed into the resulting wells in 2.5 ml, the cells were cultured at 37° C. for 3 days in a moist incubator containing 5% CO2, and then the cell density was measured using Celltac MEK-5254 (manufactured by NIHON KOHDEN).

[2] = tested on: HIV-1
Method: The cyclic phenol sulfide (III) was dissolved in the medium used in Example 8 to a concentration of 2.5 mM, and the solution was made into 2-fold serial dilutions to prepare cyclic phenol sulfide (III)-containing medium samples having 11 steps of concentration. Each of the cyclic phenol sulfide (III)-containing medium samples was dispensed into wells of a 6-well plate in 2.5 ml, a culture broth containing 1.64×10^5 cells/ml of MOLT-4 or 1.82×10^4 cells/ml of HIV-1-infected MOLT-4 was dispensed into the resulting wells in 2.5 ml, the cells were cultured at 37° C. for 3 days in a moist incubator containing 5% CO2, the resulting cell density was measured using Celltac MEK-5254 (manufactured by NIHON KOHDEN), and then a portion of the medium containing 10^6 cells was taken out to purify DNA. The number of HIV-1 DNA contained in 500 ng of the cell DNA was determined by competitive nested PCR.
Firstly, 500 ng of each cell DNA sample was mixed with 1 μM of the primers JA9 and JA12, 0.2 mM dNTP, 50 mM KCl, 10 mM Tris-HCl (pH 8.3), 4 mM MgCl2, 5,000 copies of the competitor and 2 units of Taq DNA polymerase manufactured by Roche), and the total volume was adjusted to 100 μl with Milli-Q water. […]

## O=S(=O)([O-])c1cc2c(O)c(c1)Sc1cc(S(=O)(=O)[O-])cc(c1O)Sc1cc(S(=O)(=O)[O-])cc(c1O)Sc1cc(S(=O)(=O)[O-])cc(c1O)S2.[Na+].[Na+].[Na+].[Na+] [cyclic phenol sulfide (III), sodium salt of 25,26,27,28-tetrahydroxy-2,8,14,20-tetrathia[19.3.1.1^3,71^9,131^15,19]octacosa-1(25),3,5,7(28),9,11,13(27),15,17,19(26),21,23-dodecaene-5,11,17,23-tetrasulfonic acid]
[1]
  CC50: 700 µM
[2]; HIV-1 DNA concentration after 3 days of infection, MOLT-4 / HIV-1-infected MOLT-4 co-culture, read from FIG. 2
  IC50: 40 µM
[2]; from Example 8 and Example 9
  therapeutic ratio (=CC50/IC50): 18
